This passage reports Change results from ChEMBL document CHEMBL1127220, “3-hydroxy-3-cyclobutene-1,2-dione: Application of novel carboxylic acid bioisostere to an in-vivo active non-tetrazole angiotensin-II antagonist” (Bioorg Med Chem Lett, 1993).

SMILES strings stand for the structures.

This test concerns Rattus norvegicus. The test is described as follows: Maximum % change of AII-supported portion of mean arterial pressure at 3 mg/kg, i.d. The format is functional, Artery. As to conditions: route intraduodenal.
`O=c1c(O)c(-c2ccccc2-c2ccc(CNc3nc(C(F)(F)F)nc4c3CCCC4)cc2)c1=O`: the Change is listed as -52%.
Under `O=C(O)c1ccccc1-c1ccc(CNc2nc(C(F)(F)F)nc3c2CCCC3)cc1` stands -62%.
For `O=S(=O)(Nc1ccccc1-c1ccc(CNc2nc(C(F)(F)F)nc3c2CCCC3)cc1)C(F)(F)F`, the Change is given as -31%.
For `FC(F)(F)c1nc2c(c(NCc3ccc(-c4ccccc4-c4nn[nH]n4)cc3)n1)CCCC2` the value was -75%; for `CCCCc1nc(Cl)c(CO)n1Cc1ccc(-c2ccccc2-c2nnn[nH]2)cc1` [LOSARTAN], -72%.
